# Assay results taken from publication PMC11912475 (Journal of Medicinal Chemistry, 2025).
# Tests used:
# Assay type in all cases: cell-based
# Conditions in all cases: CHO cells, 10 μM L-glutamate and 10 μM glycine; n.d. = 50% of inhibition could not be reached at the highest concentration used
# [1] = molecular target: GluN1-GluN2C NMDAR subtype (Homo sapiens, UniProt Q05586+Q14957); assay: FLIPR/Ca2+ assay, NMDAR GluN1-GluN2C subtype in CHO cells
# Method: (§1) These compounds were assessed for their effects on specific heterodimeric NMDAR subtypes stably overexpressed in Chinese Hamster Ovary (CHO) cells. The subtypes tested included GluN1-GluN2A, GluN1-GluN2B, GluN1-GluN2C, and GluN1-GluN2D. CHO cells expressing each of the four NMDAR subtypes were incubated with 10 μM L-glutamate, a concentration known to elicit maximal Ca^2+ influx, serving as the stimulus. Intracellular Ca^2+ levels were subsequently measured to determine the extent of NMDAR activation.
# (§2) Assay buffer composition was 145 mM NaCl, 5 mM KCl, 2 mM CaCl2, 1 g/Liter D-(+)-glucose, and 20 mM HEPES (pH 7.3 adjusted with NaOH). Cells were plated at a density of 15.000/well in 384 black/clear bottom plates. […] Cells were kept at 30 °C in 5% CO2 incubator for 24 h. Cells were preloaded for 1 h with 2 μM Fluo-4 Ca^2+-sensitive probe, simultaneously with 2.5 mM probenecid, an inhibitor of nonspecific anion transport, and 500 μM ketamine to avoid cytotoxicity. […] Intracellular Ca^2+ level was monitored by FLIPR (excitation wavelength at 470–495 nm, emission wavelength at 515–575 nm) for 10 s before and 5 min after the addition of test items. All test items, including L-glutamate and glycine, were added simultaneously. […] FLIPR data were normalized as 100%, in the presence of 10 μM L-glutamate and 10 μM glycine, while as 0%, in the presence of assay buffer. […] Then, data were normalized by Excel 2013 (Microsoft Office) software, using wells added with 10 μM L-glutamate plus 10 μM glycine (column 23) as high control, and wells added with assay buffer only (column 24) as low control. To assess plate quality, Z′ calculations were performed in Excel. Z′ was calculated according to following equation: Z′ = 1–3(σh + σl)/|μh – μL| where μ and σ are the means and the standard deviations of the means of high (h) and low (l) controls, respectively. Compound concentration–response curves were plotted by Prism 8 GraphPad software, in the different experimental conditions (see Supporting Information). Data were analyzed using least-squares regression fitting, to fit data to a standard four parameters logistic equation using GraphPad Prism10. This regression fitting allowed the calculation of pIC50 and the corresponding SEM.
# [2] = molecular target: T1, GluN1-GluN2B NMDAR subtype (Homo sapiens, UniProt Q05586+Q13224); assay: FLIPR/Ca2+ assay, NMDAR GluN1-GluN2B subtype in CHO cells
# T1 construct: host or cells: NR1-2B-CHO cells, constitutive expression
# T1 sequence (Q13224 27-1484, other chains not shown): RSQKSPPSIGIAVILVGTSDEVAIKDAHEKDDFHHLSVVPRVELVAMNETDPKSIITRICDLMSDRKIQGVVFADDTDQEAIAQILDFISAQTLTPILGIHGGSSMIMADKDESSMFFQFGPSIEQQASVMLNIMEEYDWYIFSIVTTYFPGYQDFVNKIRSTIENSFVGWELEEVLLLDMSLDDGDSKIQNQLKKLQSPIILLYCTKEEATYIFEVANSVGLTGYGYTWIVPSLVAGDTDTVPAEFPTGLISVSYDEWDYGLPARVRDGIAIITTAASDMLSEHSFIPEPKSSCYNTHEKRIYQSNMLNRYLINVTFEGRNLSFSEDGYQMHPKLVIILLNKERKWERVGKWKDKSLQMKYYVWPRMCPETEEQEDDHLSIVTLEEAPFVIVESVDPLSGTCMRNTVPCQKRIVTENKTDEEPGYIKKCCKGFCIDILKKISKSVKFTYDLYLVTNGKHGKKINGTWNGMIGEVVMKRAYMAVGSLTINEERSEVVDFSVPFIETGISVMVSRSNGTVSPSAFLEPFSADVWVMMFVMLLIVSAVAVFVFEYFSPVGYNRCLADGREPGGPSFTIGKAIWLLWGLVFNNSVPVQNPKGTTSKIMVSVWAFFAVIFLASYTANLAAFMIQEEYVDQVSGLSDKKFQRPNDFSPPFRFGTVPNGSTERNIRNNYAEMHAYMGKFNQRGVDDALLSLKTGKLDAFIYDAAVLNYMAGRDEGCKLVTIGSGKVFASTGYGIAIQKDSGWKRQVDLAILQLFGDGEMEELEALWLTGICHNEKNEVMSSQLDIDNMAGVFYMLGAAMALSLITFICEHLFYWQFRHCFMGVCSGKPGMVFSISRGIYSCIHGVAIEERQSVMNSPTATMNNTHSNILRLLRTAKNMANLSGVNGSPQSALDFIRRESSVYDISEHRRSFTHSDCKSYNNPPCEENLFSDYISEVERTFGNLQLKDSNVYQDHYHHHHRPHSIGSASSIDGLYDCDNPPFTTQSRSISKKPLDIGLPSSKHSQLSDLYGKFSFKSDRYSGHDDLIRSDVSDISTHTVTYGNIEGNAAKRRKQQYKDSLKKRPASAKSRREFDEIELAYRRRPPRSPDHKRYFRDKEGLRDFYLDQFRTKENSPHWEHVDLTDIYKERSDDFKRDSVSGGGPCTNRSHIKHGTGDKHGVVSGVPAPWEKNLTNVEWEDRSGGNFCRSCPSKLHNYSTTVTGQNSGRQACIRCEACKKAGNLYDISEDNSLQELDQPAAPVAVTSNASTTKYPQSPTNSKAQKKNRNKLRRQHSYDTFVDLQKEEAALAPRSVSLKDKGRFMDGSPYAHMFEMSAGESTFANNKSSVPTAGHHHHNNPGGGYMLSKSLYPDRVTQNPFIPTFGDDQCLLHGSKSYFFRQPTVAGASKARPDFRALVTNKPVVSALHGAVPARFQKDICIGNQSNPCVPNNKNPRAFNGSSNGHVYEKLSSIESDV
# Method: as §1, §2
# [3] = molecular target: GluN1-GluN2D NMDAR subtype (Homo sapiens, UniProt O15399+Q05586); assay: FLIPR/Ca2+ assay, NMDAR GluN1-GluN2D subtype in CHO cells
# GluN1-GluN2D NMDAR subtype, sequence (O15399 28-1336, other chains not shown): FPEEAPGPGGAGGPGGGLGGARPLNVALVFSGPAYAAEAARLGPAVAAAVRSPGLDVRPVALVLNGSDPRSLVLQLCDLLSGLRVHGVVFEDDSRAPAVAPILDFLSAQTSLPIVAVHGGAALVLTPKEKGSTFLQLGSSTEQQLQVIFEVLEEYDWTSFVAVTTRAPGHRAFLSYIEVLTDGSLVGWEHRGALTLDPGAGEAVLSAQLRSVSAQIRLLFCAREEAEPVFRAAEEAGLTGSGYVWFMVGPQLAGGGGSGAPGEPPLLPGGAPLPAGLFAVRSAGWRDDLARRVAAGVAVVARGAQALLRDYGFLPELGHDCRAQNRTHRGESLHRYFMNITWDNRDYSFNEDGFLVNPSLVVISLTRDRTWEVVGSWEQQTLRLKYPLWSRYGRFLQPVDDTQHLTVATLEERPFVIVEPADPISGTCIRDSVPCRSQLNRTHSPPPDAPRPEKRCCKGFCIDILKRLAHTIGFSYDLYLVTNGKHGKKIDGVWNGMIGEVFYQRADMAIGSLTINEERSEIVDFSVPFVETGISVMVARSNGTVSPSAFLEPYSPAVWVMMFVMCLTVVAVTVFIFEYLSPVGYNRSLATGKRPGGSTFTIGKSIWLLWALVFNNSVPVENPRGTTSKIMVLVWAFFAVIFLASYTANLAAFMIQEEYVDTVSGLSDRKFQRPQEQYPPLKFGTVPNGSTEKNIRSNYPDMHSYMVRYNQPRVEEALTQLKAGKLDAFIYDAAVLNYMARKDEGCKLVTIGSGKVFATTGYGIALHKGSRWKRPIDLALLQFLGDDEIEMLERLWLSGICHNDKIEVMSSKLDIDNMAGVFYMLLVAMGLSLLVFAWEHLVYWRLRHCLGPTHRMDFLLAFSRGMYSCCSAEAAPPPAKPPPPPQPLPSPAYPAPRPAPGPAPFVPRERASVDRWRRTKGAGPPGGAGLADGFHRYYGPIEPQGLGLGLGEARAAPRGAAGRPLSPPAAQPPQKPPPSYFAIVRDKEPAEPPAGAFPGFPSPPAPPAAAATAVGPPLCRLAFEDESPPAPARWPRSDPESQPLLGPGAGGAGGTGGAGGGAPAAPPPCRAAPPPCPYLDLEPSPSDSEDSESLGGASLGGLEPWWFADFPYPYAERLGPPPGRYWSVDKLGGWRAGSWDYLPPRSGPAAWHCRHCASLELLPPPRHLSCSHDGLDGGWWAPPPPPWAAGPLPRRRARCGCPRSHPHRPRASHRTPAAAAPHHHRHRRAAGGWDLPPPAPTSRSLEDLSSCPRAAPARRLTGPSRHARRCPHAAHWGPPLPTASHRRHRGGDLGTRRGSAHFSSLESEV
# Method: as §1, §2
# [4] = molecular target: GluN1-GluN2A NMDAR subtype (Homo sapiens, UniProt Q05586+Q12879); assay: FLIPR/Ca2+ assay, NMDAR GluN1-GluN2A subtype in CHO cells
# GluN1-GluN2A NMDAR subtype, sequence (Q12879 23-1464, other chains not shown): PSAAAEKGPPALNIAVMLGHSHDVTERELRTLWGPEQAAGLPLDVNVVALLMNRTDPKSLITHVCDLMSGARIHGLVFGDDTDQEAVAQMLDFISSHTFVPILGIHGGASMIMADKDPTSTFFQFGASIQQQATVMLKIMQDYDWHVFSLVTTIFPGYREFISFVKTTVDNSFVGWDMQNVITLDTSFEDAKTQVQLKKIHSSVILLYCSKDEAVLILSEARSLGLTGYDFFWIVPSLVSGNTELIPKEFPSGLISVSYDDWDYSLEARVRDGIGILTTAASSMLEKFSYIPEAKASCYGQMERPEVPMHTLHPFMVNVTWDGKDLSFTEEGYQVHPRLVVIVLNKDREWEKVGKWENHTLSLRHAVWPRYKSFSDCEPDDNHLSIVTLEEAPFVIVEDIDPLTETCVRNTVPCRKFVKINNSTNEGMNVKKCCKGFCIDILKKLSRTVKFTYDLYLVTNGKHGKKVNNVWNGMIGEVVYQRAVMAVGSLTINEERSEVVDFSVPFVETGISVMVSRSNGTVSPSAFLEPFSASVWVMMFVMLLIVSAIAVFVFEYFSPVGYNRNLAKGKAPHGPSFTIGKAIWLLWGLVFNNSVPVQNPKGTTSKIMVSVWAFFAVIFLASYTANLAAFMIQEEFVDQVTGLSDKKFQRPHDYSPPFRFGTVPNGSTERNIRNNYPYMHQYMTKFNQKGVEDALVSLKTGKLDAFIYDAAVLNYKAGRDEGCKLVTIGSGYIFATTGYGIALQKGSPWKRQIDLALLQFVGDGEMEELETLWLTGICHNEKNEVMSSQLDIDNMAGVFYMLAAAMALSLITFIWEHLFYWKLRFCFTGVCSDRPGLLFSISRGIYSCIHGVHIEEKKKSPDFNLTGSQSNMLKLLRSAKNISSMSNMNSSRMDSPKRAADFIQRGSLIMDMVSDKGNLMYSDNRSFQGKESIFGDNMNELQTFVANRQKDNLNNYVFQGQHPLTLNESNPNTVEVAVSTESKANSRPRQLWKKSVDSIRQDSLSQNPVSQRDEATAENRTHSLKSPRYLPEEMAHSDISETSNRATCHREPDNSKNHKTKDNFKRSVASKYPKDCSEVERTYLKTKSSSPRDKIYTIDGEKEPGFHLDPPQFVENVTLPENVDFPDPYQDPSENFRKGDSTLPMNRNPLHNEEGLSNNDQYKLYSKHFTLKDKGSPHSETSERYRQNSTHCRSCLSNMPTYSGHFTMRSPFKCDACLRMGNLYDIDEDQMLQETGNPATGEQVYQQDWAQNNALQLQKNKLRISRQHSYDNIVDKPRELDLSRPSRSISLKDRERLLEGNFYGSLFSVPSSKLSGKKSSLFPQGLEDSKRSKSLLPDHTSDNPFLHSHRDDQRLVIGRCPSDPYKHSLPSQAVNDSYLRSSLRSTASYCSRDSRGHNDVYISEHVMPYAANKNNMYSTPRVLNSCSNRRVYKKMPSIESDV
# Method: as §1, §2
structure (smiles),measurement,setting,value
"CNC1(c2ccccc2Cl)CCCCC1=O (racemic) [(±)-ketamine, reference compound]",pIC50 (mean ± SEM) GluN1-GluN2C,[1],5.4 ± 0.069
same,pIC50 (mean ± SEM) GluN1-GluN2B,[2],5.2 ± 0.037
same,pIC50 (mean ± SEM) GluN1-GluN2D,[3],5.0 ± 0.087
same,pIC50 (mean ± SEM) GluN1-GluN2A,[4],4.6 ± 0.028
"CC[C@@H](O)C(C[C@@H](C)N(C)C)(c1ccccc1)c1ccccc1 [(3R,6R)-ML, (3R,6R)-6-(dimethylamino)-4,4-diphenylheptan-3-ol]",pIC50 (mean ± SEM) GluN1-GluN2C,[1],4.1 ± 0.062
same,pIC50 (mean ± SEM) GluN1-GluN2B,[2],4.0 ± 0.12
same,pIC50 (mean ± SEM) GluN1-GluN2D,[3],4.3 ± 0.12
same,pIC50 (mean ± SEM) GluN1-GluN2A,[4],4.5 ± 0.085
"CC[C@@H](O)C(C[C@H](C)N(C)C)(c1ccccc1)c1ccccc1 [(3R,6S)-ML, (3R,6S)-6-(dimethylamino)-4,4-diphenylheptan-3-ol]",pIC50 (mean ± SEM) GluN1-GluN2A,[4],4.0 ± 0.23
"CC[C@H](O)C(C[C@@H](C)N(C)C)(c1ccccc1)c1ccccc1 [(3S,6R)-ML, (3S,6R)-6-(dimethylamino)-4,4-diphenylheptan-3-ol]",pIC50 (mean ± SEM) GluN1-GluN2C,[1],4.2 ± 0.074
same,pIC50 (mean ± SEM) GluN1-GluN2D,[3],4.2 ± 0.23
same,pIC50 (mean ± SEM) GluN1-GluN2A,[4],4.5 ± 0.18
"CC[C@H](O)C(C[C@H](C)N(C)C)(c1ccccc1)c1ccccc1 [(3S,6S)-ML, (3S,6S)-6-(dimethylamino)-4,4-diphenylheptan-3-ol]",pIC50 (mean ± SEM) GluN1-GluN2C,[1],4.1 ± 0.056
same,pIC50 (mean ± SEM) GluN1-GluN2B,[2],4.0 ± 0.077
same,pIC50 (mean ± SEM) GluN1-GluN2D,[3],4.2 ± 0.16
same,pIC50 (mean ± SEM) GluN1-GluN2A,[4],4.1 ± 0.034
